The target of one series is human TRPA1 ion channel (Homo sapiens (Human), UniProt O75762). As to the kind of experiment: Assay A: TRPA1 cell assay (FLIPR, AITC-induced intracellular calcium). The format is cell-based. The conditions noted are these: HEK293 cells over-expressing human TRPA1; AITC 10 μM agonist; FLIPRtetra; read-out: hTRPA1 IC50. How it is done: A human HEK293 cell line over-expressing the human TRPA1 ion channel (Perkin Elmer, Product No. AX-004-PCL) was used as a test system for compound efficacy and potency.
Compound activity was determined by measuring the effect of compounds on intracellular calcium concentration induced by AITC (Allylisothiocyanat) agonism in a FLIPRtetra system (Molecular Devices).
The cells were obtained as frozen cells in cryo-vials and stored until use at −150° C. Cells were grown in culture medium (MEM/EBSS medium with 10% FCS and 0.4 mg/ML Geneticin). […] For sub-culturing cells were detached from flasks by Versene. At the day before the assay, cells were detached, washed twice with medium (MEM/EBSS medium with 10% FCS) and 20000 cells in 20 μl/well were seeded to Poly D-Lysin biocoated 384-well plates (black, clear bottom, Cat.356697) from Corning. Plates were incubated for 24 hours at 37° C./5% CO2 before use in the assay.
The test compounds were dissolved in 100% DMSO at a concentration of 10 mM and in a first step diluted in DMSO to a concentration of 5 mM, followed by serial dilution steps in 100% DMSO. Dilution factor and number of dilution steps may vary according to needs. Typically 8 different concentrations by 1:5 dilutions were prepared, further intermediate dilutions (1:20) of the substances were carried out with HBSS/HEPES buffer (1×HEPES,Cat.14065 from Gibco, 20 mM HEPES, Cat. 83264 from SIGMA, 0.1% BSA Cat.11926 from Invitrogen, pH 7,4
At the assay day cells were washed 3× with assay puffer, 20 μL buffer remained in the wells after washing. 10 μL Ca6 kit (Cat.R8191 MolecularDevices) loading buffer in HBSS/HEPES was added to the cells and the plates were incubated with lid for 120 minutes at 37°/5% CO2. 10 μL of compound or controls in HBSS/HEPES buffer/5% DMSO from the intermediate dilution plate were carefully added to the wells. […] Finally 10 μL of the agonist AITC 50 μM dissolved in HBSS/HEPES buffer/0,05% DMSO (final concentration 10 μM) was added to the wells followed by an additional read on the FLIPRtetra device for 10 minutes. The area under the signal curve (AUC) after AITC addition was used for IC50/% inhibition calculations
Data Evaluation and Calculation:
Each assay microtiter plate contained wells with vehicle (1% DMSO) controls instead of compound as controls for AITC induced luminescence (100% CTL; high controls) and wells with vehicle controls without AITC as controls for non-specific changes in luminescence (0% CTL; low controls).
The analysis of the data was performed by the calculation of the area under signal curve of the individual wells. Based on this values the % value for the measurement of each substance concentration was calculated (AUC(sample)−AUC(low))*100/(AUC(high)−AUC(low)) using MegaLab software (in house development). The IC50 values were calculated from the % control values using MegaLab software. Calculation: [y=(a−d)/(1+(x/c){circle around ( )}b)+d], a=low value, d=high value; x=conc M; c=IC50 M; b=hill; y=ctrl
On the technique in general: Calcium assays in cells follow changes in intracellular calcium, usually with a dye or a luminescent sensor.

Series [1] in a line: Assay B: Microsomal clearance. The format is in vitro ADME, human. The conditions noted are these: pooled liver microsomes, 1 μM test compound, 37° C., NADPH. How it is done:
Assay B: Microsomal Clearance:
The metabolic degradation of the test compound is assayed at 37° C. with pooled liver microsomes. The final incubation volume of 100 μl per time point contains TRIS buffer pH 7.6 at RT (0.1 M), magnesium chloride (5 mM), microsomal protein (1 mg/ml) and the test compound at a final concentration of 1 μM.
Following a short preincubation period at 37° C., the reactions are initiated by addition of beta-nicotinamide adenine dinucleotide phosphate, reduced form (NADPH, 1 mM) and terminated by transferring an aliquot into solvent after different time points (0, 5, 15, 30, 60 min). Additionally, the NADPH-independent degradation is monitored in incubations without NADPH, terminated at the last time point. The [%] remaining test compound after NADPH independent incubation is reflected by the parameter c(control) (metabolic stability). The quenched incubations are pelleted by centrifugation (10000 g, 5 min).
An aliquot of the supernatant is assayed by LC-MS/MS for the amount of parent compound. The half-life (t½ INVITRO) is determined by the slope of the semilogarithmic plot of the concentration-time profile.
The intrinsic clearance (CL_[…]) is calculated by considering the amount of protein in the incubation:
CL_[…] [μl/min/mg protein]=(Ln 2/(half-life [min]*protein content [mg/ml]))*1000
CL_[…]_INVIVO [ml/min/kg]=(CL_[…] [μL/min/mg protein]×MPPGL [mg protein/g liver]×liver factor [g/kg bodyweight])/1000
For orientation: Liver microsomes are a subcellular fraction often used to study metabolism.

The nature of series [2]: Assay C: Hepatocyte clearance. Format: in vitro ADME, human. The following applies: cryopreserved hepatocyte suspension, incubated six hours. How it is done: Assay C: Hepatocyte Clearance
The metabolic degradation of the test compound is assayed in a hepatocyte suspension. Hepatocytes (cryopreserved) are incubated in. Dulbecco's modified eagle medium (supplemented with 3.5 μg glucagon/500 mL, 2.5 mg insulin/500 mL and 3.75 mg/500 mL hydrocortison) containing 5% or 50% species serum.
Following a 30 min preincubation in an incubator (37° C., 10% CO2) 5 μl of test compound solution (80 μM; from 2 mM in DMSO stock solution diluted 1:25 with medium) are added into 395 μl hepatocyte suspension (cell density in the range 0.25-5 Mio cells/mL depending on the species, typically 1 Mio cells/mL; final concentration of test compound final DMSO concentration 0.05%).
The cells are incubated for six hours (incubator, orbital shaker) and samples (25 μl) are taken at 0, 0.5, 1, 2, 4 and 6 hours. Samples are transferred into acetonitrile and pelleted by centrifugation (5 min). The supernatant is transferred to a new 96-deepwell plate, evaporated under nitrogen and resuspended.
Decline of Parent Compound is Analyzed by HPLC-MS/MS
CLint is calculated as follows CL_[…]=Dose/AUC=(C0/CD)/(AUD+clast/k)×1000/60. C0: initial concentration in the incubation [μM], CD: cell density of vital cells [10e6cells/mL], AUD: area under the data [μM×h], clast: concentration of last data point [μM], k: slope of the regression line for parent decline [h−1].
The calculated in vitro hepatic intrinsic clearance can be scaled up to the intrinsic in vivo hepatic Clearance and used to predict hepatic in vivo blood clearance (CL) by the use of a liver model (well stirred model).
CL_[…]_INVIVO [ml/min/kg]=(CL_[…] [μL/min/10e6cells]×hepatocellularity[10e6cells/g liver]×liver factor [g/kg bodyweight])/1000
CL [ml/min/kg]=CL_[…]_INVIVO [ml/min/kg]×hepatic blood flow [ml/min/kg]/(CL_[…]_INVIVO [ml/min/kg]+hepatic blood flow [ml/min/kg])

A short description of series [3]: Assay D: Metabolism in human hepatocytes in vitro. The format is in vitro ADME. The following applies: primary human hepatocytes, 10 μM test compound, up to six hours. How it is done: Assay D: Metabolism in Human Hepatocytes In Vitro
The metabolic pathway of a test compound is investigated using primary human hepatocytes in suspension.
Following a 30 min preincubation in a cell culture incubator (37° C., 10% CO2), test compound solution is spiked into the hepatocyte suspension to obtain a final cell density of 1.0*10^6 to 4.0*10^6 cells/ml (depending on the metabolic turnover rate of the compound observed with primary human hepatocytes), a final test compound concentration of 10 μM, and a final DMSO concentration of 0.05%.
The cells are incubated for six hours in a cell culture incubator on a horizontal shaker, and samples are removed from the incubation after 0, 0.5, 1, 2, 4 or 6 hours, depending on the metabolic turnover rate. Samples are quenched with acetonitrile and pelleted by centrifugation. The supernatant is transferred to a 96-deepwell plate, evaporated under nitrogen and resuspended prior to bioanalysis by liquid chromatography-high resolution mass spectrometry for identification of putative metabolites.

Where only a bound is given, the exact number is not on record here.

human TRPA1 ion channel, sequence (O75762 whole entry): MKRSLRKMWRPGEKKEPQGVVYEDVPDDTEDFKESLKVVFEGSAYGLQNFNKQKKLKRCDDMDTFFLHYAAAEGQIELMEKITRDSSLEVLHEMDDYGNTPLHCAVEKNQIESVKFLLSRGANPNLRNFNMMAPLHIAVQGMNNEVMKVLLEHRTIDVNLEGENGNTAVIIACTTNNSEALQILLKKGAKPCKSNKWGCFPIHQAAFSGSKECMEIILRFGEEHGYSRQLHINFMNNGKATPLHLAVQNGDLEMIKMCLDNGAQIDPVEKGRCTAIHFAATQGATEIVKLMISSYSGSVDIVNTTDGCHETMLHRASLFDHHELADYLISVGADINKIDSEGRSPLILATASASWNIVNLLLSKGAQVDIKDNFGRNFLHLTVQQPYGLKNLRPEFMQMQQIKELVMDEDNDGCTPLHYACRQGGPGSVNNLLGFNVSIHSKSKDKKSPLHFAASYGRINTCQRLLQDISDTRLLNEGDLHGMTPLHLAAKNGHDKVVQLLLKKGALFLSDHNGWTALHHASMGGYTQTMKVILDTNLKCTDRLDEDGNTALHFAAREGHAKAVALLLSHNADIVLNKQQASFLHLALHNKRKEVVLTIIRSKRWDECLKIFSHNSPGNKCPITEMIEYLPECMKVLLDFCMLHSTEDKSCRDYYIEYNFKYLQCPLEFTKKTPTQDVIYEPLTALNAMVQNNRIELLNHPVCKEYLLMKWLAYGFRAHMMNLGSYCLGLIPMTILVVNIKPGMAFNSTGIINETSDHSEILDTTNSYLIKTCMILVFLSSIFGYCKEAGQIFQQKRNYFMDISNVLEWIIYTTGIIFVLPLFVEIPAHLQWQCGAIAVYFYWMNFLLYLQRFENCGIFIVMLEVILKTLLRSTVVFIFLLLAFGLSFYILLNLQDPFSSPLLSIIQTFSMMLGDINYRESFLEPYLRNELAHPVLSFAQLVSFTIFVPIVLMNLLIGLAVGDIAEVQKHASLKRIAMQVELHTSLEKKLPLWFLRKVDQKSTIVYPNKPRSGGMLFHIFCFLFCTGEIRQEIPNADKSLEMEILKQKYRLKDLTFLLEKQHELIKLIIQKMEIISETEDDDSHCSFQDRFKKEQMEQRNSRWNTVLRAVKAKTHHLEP

A word on the IC50: it is the midpoint of a concentration-inhibition curve. In the case of `Cn1cnc2nc(N)n(Cc3nnn(C[C@H](O)c4ccc(Cl)cc4)n3)c(=O)c21` [Example 2], the half-maximal inhibitory concentration (IC50) at human TRPA1 ion channel came out at 288 nM.

As for `Cn1cnc2cnn(Cc3nnn(C[C@H](O)c4ccc(Cl)cc4)n3)c(=O)c21` [Example 7], in series [1], the “human LM [% Qh]” value is given as less than 23 % Qh. Besides, the concentration for half-maximal inhibition (IC50) at human TRPA1 ion channel was 275 nM.

For `O=c1c2scnc2ncn1Cc1nnn(C[C@H](O)c2ccc(Cl)cc2)n1` [Example 4], in series [1], the “human LM [% Qh]” value is recorded as less than 23 % Qh. For the same compound, the concentration for half-maximal inhibition (IC50) on human TRPA1 ion channel is 197 nM.

Consider `Cc1ncn2ncn(Cc3nnn(C[C@H](O)c4ccc(Cl)cc4)n3)c(=O)c12` [Example 8], for which the “human LM [% Qh]” value in series [1] is less than 23 % Qh. Further, at human TRPA1 ion channel, the half-inhibitory concentration (IC50) turned out to be 27 nM. Further, in series [2], the “human Hepatocytes [% Qh]” value is on record as 22 % Qh.

With `Cc1nn(C)c2ncn(Cc3nnn(C[C@H](O)c4ccc(Cl)cc4)n3)c(=O)c12` [Example 5], the “human LM [% Qh]” value in series [1] is recorded as less than 23 % Qh. On human TRPA1 ion channel, the IC50 worked out at 27 nM. The “Major metabolite observed: mechanism (Metabolite M1)” value in series [3] is “N-Demethylation”. In addition, the “human Hepatocytes [% Qh]” value in series [2] came to 31 % Qh.

In the case of `Cc1ccn2ncn(Cc3nnn(C[C@H](O)c4ccc(Cl)cc4)n3)c(=O)c12` [Example 3], the “human LM [% Qh]” value in series [1] is listed as more than 89 % Qh. The half-maximal inhibitory concentration (IC50) at human TRPA1 ion channel was 75 nM.

In the case of `Cn1nnc2ncn(Cc3nnn(C[C@H](O)c4ccc(Cl)cc4)n3)c(=O)c21` [Example 1], the “human LM [% Qh]” value in series [1] is recorded as less than 23 % Qh. The IC50 on human TRPA1 ion channel amounted to 35 nM. For the same compound, the “human Hepatocytes [% Qh]” value in series [2] is on record as less than 4 % Qh.

With `Cn1cnc2ncn(Cc3nnn(C[C@H](O)c4ccc(Cl)cc4)n3)c(=O)c21` [Example 9, 1-({2-[(2R)-2-(4-chlorophenyl)-2-hydroxyethyl]-2H-1,2,3,4-tetrazol-5-yl}methyl)-7-methyl-6,7-dihydro-1H-purin-6-one], in series [1], the “human LM [% Qh]” value was less than 23 % Qh. The IC50 at human TRPA1 ion channel was 72 nM. The “human Hepatocytes [% Qh]” value in series [2] is reported as less than 4 % Qh.

The values above are taken from patent US20240101561A1, “NOVEL TETRAZOLES” (Boehringer Ingelheim International GmbH, priority 2019, published 2024).
